Read-outs that look alike come from different tables or passages of the source.

The target of one test is Mcl-1 protein (UniProtKB Q07820) (Homo sapiens (Human), UniProt Q07820). The experiment in a line: Inhibition of Mcl-1 by the fluorescence polarisation assay (Example A, Method A). The following applies: fluorescence polarization assay. It counts as binding. The method in brief: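 Protein (5 nM) and fluorescein-tagged peptide tracer (1 nM) incubated with 11-point compound series for 2 h at room temperature in HEPES/NaCl/Tween 20 buffer, pH 7.4, 5% DMSO. Displacement read as decrease in polarisation; IC50 fitted by 4-parameter logistic, converted to Ki (cKi or eKi).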
In general terms: Fluorescence polarisation rises when a labelled molecule tumbles more slowly, as on binding a larger partner.

For test [1], the system named is H929 multiple myeloma tumor line. The experiment in a line: In vitro cytotoxicity, MTT assay (Example B, Method A). It counts as cell-based. Particulars: H929 cells, 48 hours exposure, read-out: C50. As to the method: The cytotoxicity studies were carried out on the H929 multiple myeloma tumor line.
The cells are distributed onto microplates and exposed to the test compounds for 48 hours. The cell viability is then quantified by a colorimetric assay, the Microculture Tetrazolium Assay (Carmichael et al, Cancer Res. 1987, 47, 939-942).
The results are expressed in C50 which means concentration corresponding to […] of effect/inhibition.
A general note: Tetrazolium dyes change colour on reduction, which living cells bring about.

Sequence of Mcl-1 protein (Q07820 whole entry): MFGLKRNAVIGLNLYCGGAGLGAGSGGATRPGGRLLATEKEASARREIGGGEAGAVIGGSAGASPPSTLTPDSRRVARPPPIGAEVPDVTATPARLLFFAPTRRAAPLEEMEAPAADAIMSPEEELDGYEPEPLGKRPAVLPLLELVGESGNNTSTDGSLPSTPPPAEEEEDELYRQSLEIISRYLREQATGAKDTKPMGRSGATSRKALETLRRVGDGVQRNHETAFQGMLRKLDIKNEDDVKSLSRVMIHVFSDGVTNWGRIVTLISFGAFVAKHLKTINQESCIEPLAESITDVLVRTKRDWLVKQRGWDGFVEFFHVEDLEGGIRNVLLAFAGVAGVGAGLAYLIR

By Ki is commonly meant the equilibrium dissociation constant of an inhibitor or competing ligand from its target. `O=C(O)[C@]1(Nc2cccc(Cl)c2)CC[C@@]2(CC1)c1ccccc1CC2CCCOc1ccnc(F)c1` (mixture of isomers) [Example 427, (1r,4r)-4-(3-chloroanilino)-2′-{3-[(2-fluoropyridin-4-yl)oxy]propyl}-2′,3′-dihydrospiro[cyclohexane-1,1′-indene]-4-carboxylic acid]: the Ki on Mcl-1 protein came to 0.226 µM. Moreover, in test [1] (Homo sapiens, NCI-H929, 48 h), the IC50 worked out at 17.4 µM.

Turning to `O=C(O)[C@]1(Nc2cccc(Cl)c2)CC[C@@]2(CC1)c1ccccc1CC2CCCOc1ncnc2c1CCC2` (mixture of isomers) [Example 459, (1r,4r)-4-(3-chloroanilino)-2′-{3-[(6,7-dihydro-5H-cyclopenta[d]pyrimidin-4-yl)oxy]propyl}-2′,3′-dihydrospiro[cyclohexane-1,1′-indene]-4-carboxylic acid], the inhibitory constant (Ki) on Mcl-1 protein was 0.0857 µM. The IC50 in test [1] (Homo sapiens, NCI-H929, 48 h) was 6.96 µM. As to `O=C(O)[C@]1(Nc2cccc(Cl)c2)CC[C@@]2(CC1)c1ccccc1CC2CCCOc1ncncc1C1CC1` (mixture of isomers) [Example 465, (1r,4r)-4-(3-chloroanilino)-2′-{3-[(5-cyclopropylpyrimidin-4-yl)oxy]propyl}-2′,3′-dihydrospiro[cyclohexane-1,1′-indene]-4-carboxylic acid], at Mcl-1 protein, the Ki was 0.0754 µM. In addition, the IC50 in test [1] (Homo sapiens, NCI-H929, 48 h) came to 9.6 µM. On to `CC1CCc2nccc(OC[C@H](C)CC3Cc4ccccc4[C@]34CC[C@@](Nc3cccc(Cl)c3)(C(=O)O)CC4)c21` (mixture of isomers) [Example 602, (1r,4R)-4-(3-chloroanilino)-2′-{(2R)-2-methyl-3-[(5-methyl-6,7-dihydro-5H-cyclopenta[b]pyridin-4-yl)oxy]propyl}-2′,3′-dihydrospiro[cyclohexane-1,1′-indene]-4-carboxylic acid], for which the Ki at Mcl-1 protein was determined as 0.00337 µM. The IC50 in test [1] (Homo sapiens, NCI-H929, 48 h) is 0.518 µM.

In the case of `Cc1cccc(C2Cc3ccccc3[C@]23CC[C@@](Nc2cccc(Cl)c2)(C(=O)O)CC3)c1` (single isomer, unassigned) [Example 345, (1r,4r)-4-(3-chloroanilino)-2′-(3-methylphenyl)-2′,3′-dihydrospiro[cyclohexane-1,1′-indene]-4-carboxylic acid], the Ki at Mcl-1 protein worked out at 1.24 µM. The IC50 in test [1] (Homo sapiens, NCI-H929, 48 h) turned out to be 30 µM. Take `Cc1cccc(C2Cc3ccccc3[C@]23CC[C@@](Nc2cccc(Cl)c2)(C(=O)O)CC3)c1` (single isomer, unassigned) [Example 346, (1r,4r)-4-(3-chloroanilino)-2′-(3-methylphenyl)-2′,3′-dihydrospiro[cyclohexane-1,1′-indene]-4-carboxylic acid]: the Ki at Mcl-1 protein is 9.29 µM. For the same compound, in test [1], the IC50 is 30 µM. Consider `COc1ccc2c(c1)[C@]1(CC[C@@](Nc3cccc(Cl)c3)(C(=O)O)CC1)C(c1cccc(Oc3ccccc3)c1)C2` (single isomer, unassigned) [Example 378, (1r,4r)-4-(3-chloroanilino)-6′-methoxy-2′-(3-phenoxyphenyl)-2′,3′-dihydrospiro[cyclohexane-1,1′-indene]-4-carboxylic acid], for which the Ki on Mcl-1 protein came out at 0.0632 µM. For the same compound, in test [1] (Homo sapiens, NCI-H929, 48 h), the IC50 turned out to be 9.24 µM. `COCCOc1ccc2c(c1)[C@]1(CC[C@@](Nc3cccc(Cl)c3)(C(=O)O)CC1)C(c1cccc(Oc3ccccc3)c1)C2` (single isomer, unassigned) [Example 384, (1r,4r)-4-(3-chloroanilino)-6′-(2-methoxyethoxy)-2′-(3-phenoxyphenyl)-2′,3′-dihydrospiro[cyclohexane-1,1′-indene]-4-carboxylic acid]: the Ki at Mcl-1 protein is 0.0588 µM. Besides, the IC50 in test [1] (Homo sapiens, NCI-H929, 48 h) was found to be 11.4 µM. As to `CC(C)COc1ccc2c(c1)[C@]1(CC[C@@](Nc3cccc(Cl)c3)(C(=O)O)CC1)C(c1cccc(Oc3ccccc3)c1)C2` (single isomer, unassigned) [Example 385, (1r,4r)-4-(3-chloroanilino)-6′-(2-methylpropoxy)-2′-(3-phenoxyphenyl)-2′,3′-dihydrospiro[cyclohexane-1,1′-indene]-4-carboxylic acid], the Ki at Mcl-1 protein stood at 0.81 µM. For the same compound, the IC50 in test [1] (Homo sapiens, NCI-H929, 48 h) worked out at 18.9 µM. Consider `CCOc1ccc2c(c1)[C@]1(CC[C@@](Nc3cccc(Cl)c3)(C(=O)O)CC1)C(c1cccc(Oc3ccccc3)c1)C2` (single isomer, unassigned) [Example 386, (1r,4r)-4-(3-chloroanilino)-6′-ethoxy-2′-(3-phenoxyphenyl)-2′,3′-dihydrospiro[cyclohexane-1,18′-indene]-4-carboxylic acid], for which, at Mcl-1 protein, the Ki came to 0.161 µM. Also, in test [1] (Homo sapiens, NCI-H929, 48 h), the IC50 was determined as 7.92 µM. Regarding `CC(C)Oc1ccc2c(c1)[C@]1(CC[C@@](Nc3cccc(Cl)c3)(C(=O)O)CC1)C(c1cccc(Oc3ccccc3)c1)C2` (single isomer, unassigned) [Example 387, (1r,4r)-4-(3-chloroanilino)-2′-(3-phenoxyphenyl)-6′-[(propan-2-yl)oxy]-2′,3′-dihydrospiro[cyclohexane-1,1′-indene]-4-carboxylic acid], the Ki on Mcl-1 protein stood at 0.22 µM. Besides, the IC50 in test [1] (Homo sapiens, NCI-H929, 48 h) was 9.59 µM.

Take `CC(C)C(COc1ccnc2ccsc12)CC1Cc2ccccc2[C@]12CC[C@@](Nc1cccc(Cl)c1)(C(=O)O)CC2` (single isomer, unassigned) [Example 522, (1r,4r)-4-(3-chloroanilino)-2′-(3-methyl-2-{[(thieno[3,2-b]pyridin-7-yl)oxy]methyl}butyl)-2′,3′-dihydrospiro[cyclohexane-1,1′-indene]-4-carboxylic acid]: the inhibitory constant (Ki) on Mcl-1 protein was 6.36 µM. For the same compound, in test [1] (Homo sapiens, NCI-H929, 48 h), the IC50 was determined as 17.1 µM.

For `CC(C)C(COc1ccnc2ccsc12)CC1Cc2ccccc2[C@]12CC[C@@](Nc1cccc(Cl)c1)(C(=O)O)CC2` (single isomer, unassigned) [Example 523, (1r,4r)-4-(3-chloroanilino)-2′-(3-methyl-2-{[(thieno[3,2-b]pyridin-7-yl)oxy]methyl}butyl)-2′,3′-dihydrospiro[cyclohexane-1,1′-indene]-4-carboxylic acid], in test [1], the IC50 is 16.4 µM. In the case of `CC(C)C(COc1ccnc2ccsc12)CC1Cc2ccccc2[C@]12CC[C@@](Nc1cccc(Cl)c1)(C(=O)O)CC2` (single isomer, unassigned) [Example 524, (1r,4r)-4-(3-chloroanilino)-2′-(3-methyl-2-{[(thieno[3,2-b]pyridin-7-yl)oxy]methyl}butyl)-2′,3′-dihydrospiro[cyclohexane-1,1′-indene]-4-carboxylic acid], the IC50 in test [1] was 30 µM. For `CC(C)C(COc1cccnc1)CC1Cc2ccccc2[C@]12CC[C@@](Nc1cccc(Cl)c1)(C(=O)O)CC2` (single isomer, unassigned) [Example 526, (1r,4r)-4-(3-chloroanilino)-2′-(3-methyl-2-{[(pyridin-3-yl)oxy]methyl}butyl)-2′,3′-dihydrospiro[cyclohexane-1,1′-indene]-4-carboxylic acid], at Mcl-1 protein, the Ki stood at 1.86 µM. Besides, the IC50 in test [1] (Homo sapiens, NCI-H929, 48 h) stood at 30 µM. As for `CC(C)C(COc1cccnc1)CC1Cc2ccccc2[C@]12CC[C@@](Nc1cccc(Cl)c1)(C(=O)O)CC2` (single isomer, unassigned) [Example 527, (1r,4r)-4-(3-chloroanilino)-2′-(3-methyl-2-{[(pyridin-3-yl)oxy]methyl}butyl)-2′,3′-dihydrospiro[cyclohexane-1,1′-indene]-4-carboxylic acid], the Ki on Mcl-1 protein worked out at 8.94 µM. Moreover, the IC50 in test [1] is 16.4 µM.

On to `CC(C)C(COc1cccnc1)CC1Cc2ccccc2[C@]12CC[C@@](Nc1cccc(Cl)c1)(C(=O)O)CC2` (single isomer, unassigned) [Example 528, (1r,4r)-4-(3-chloroanilino)-2′-(3-methyl-2-{[(pyridin-3-yl)oxy]methyl}butyl)-2′,3′-dihydrospiro[cyclohexane-1,1′-indene]-4-carboxylic acid], for which the inhibition constant (Ki) on Mcl-1 protein amounted to 3.28 µM. Also, the IC50 in test [1] came out at 30 µM. With `CC(C)C(COc1ccccc1)CC1Cc2ccccc2[C@]12CC[C@@](Nc1cccc(Cl)c1)(C(=O)O)CC2` (single isomer, unassigned) [Example 529, (1r,4r)-4-(3-chloroanilino)-2′-[3-methyl-2-(phenoxymethyl)butyl]-2′,3′-dihydrospiro[cyclohexane-1,1′-indene]-4-carboxylic acid], the Ki on Mcl-1 protein worked out at 4.31 µM. Moreover, the IC50 in test [1] worked out at 25.3 µM. For `CCC1CC(O)c2nccc(OC[C@H](C)C[C@H]3Cc4ccccc4[C@]34CC[C@@](Nc3cccc(Cl)c3)(C(=O)O)CC4)c21` (stereo partly drawn) [Example 624, (1r,2′S,4S)-4-(3-chloroanilino)-2′-{(2R)-3-[(5-ethyl-7-hydroxy-6,7-dihydro-5H-cyclopenta[b]pyridin-4-yl)oxy]-2-methylpropyl}-2′,3′-dihydrospiro[cyclohexane-1,1′-indene]-4-carboxylic acid], the IC50 in test [1] (Homo sapiens, NCI-H929, 48 h) was 0.525 µM. Same read-out and setting: in the case of `C[C@@H](COc1cccc2ncsc12)C[C@H]1Cc2ccccc2[C@]12CC[C@@](Nc1cccc(Cl)c1)(C(=O)O)CC2` [Example 625, (1r,2′S,4S)-2′-{(2R)-3-[(1,3-benzothiazol-7-yl)oxy]-2-methylpropyl}-4-(3-chloroanilino)-2′,3′-dihydrospiro[cyclohexane-1,1′-indene]-4-carboxylic acid] it was 6.59 µM; in that of `C[C@@H](COc1ccnc2[nH]ccc12)C[C@H]1Cc2ccccc2[C@]12CC[C@@](Nc1cccc(Cl)c1)(C(=O)O)CC2` [Example 626, (1r,2′S,4S)-4-(3-chloroanilino)-2′-{(2R)-2-methyl-3-[(1H-pyrrolo[2,3-b]pyridin-4-yl)oxy]propyl}-2′,3′-dihydrospiro[cyclohexane-1,1′-indene]-4-carboxylic acid], 0.54 µM.

Values taken from patent publication US20240150293A1, “SPIROCYCLOHEXANE DERIVATIVES, PHARMACEUTICAL COMPOSITIONS CONTAINING THEM AND THEIR USES AS ANTI-APOPTOTIC INHIBITORS” (LES LABORATOIRES SERVIER, priority 2021, published 2024).
